Measured values published in article PMC11276849, “A Female-Biased Chemosensory Protein PxutCSP19 in the Antennae of Papilio xuthus Tuned to Host Volatiles and Insecticides” (Insects, 2024).
Like-named read-outs stand apart in the source and are kept apart here.

Legend:
PxutCSP19 = PxutCSP19 (Papilio xuthus, UniProt A0A194QJK0); assay: Fluorescence competitive binding assay (1-NPN displacement), wildtype PxutCSP19; details: for inhibition at 20 µM: read-out: F.D. (fluorescent displacement rate of ligands), Wildtype (WT), ligand at 20 μM, PxutCSP19/1-NPN each 2 μM, NB = no binding
Sequence of PxutCSP19 (A0A194QJK0 entry or part of it): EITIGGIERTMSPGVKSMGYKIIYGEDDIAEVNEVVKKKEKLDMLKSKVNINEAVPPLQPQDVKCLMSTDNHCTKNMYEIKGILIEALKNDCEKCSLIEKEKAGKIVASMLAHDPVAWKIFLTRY
Source text: The open reading frame (ORF) of PxutCSP19 was cloned with a PrimeSTAR®® Max DNA Polymerase (TaKaRa, Liaoning, Dalian, China) and gene-specific primers containing restriction enzyme sites (BamH I and Xho I) (Table S2). The PCR products were detected on a 1.5% (w/v) agarose gel, and the expected bands were cut and purified using a HiPure Gel Pure DNA Mini Kit (Magen, Guangzhou, China). Next, BamH I and Xho I were used to digest the PxutCSP19 products and pET-30a (+) plasmids, followed by purification. A T4 DNA ligase (Thermo Fisher Scientific, Waltham, MA, USA) was applied to the construction of the recombinant plasmids pET-30a (+)/PxutCSP19. After being confirmed by sequencing, the plasmids were transformed into BL21 (DE3) competent cells so as to express recombinant proteins with 1.0 mM isopropyl β-D-thiogalactoside (IPTG). Because this recombinant protein pET-30a (+)/PxutCSP19 was insoluble, we applied a protein denaturation–renaturation approach to purify PxutCSP19 with an affinity chromatography technique, in which the denaturation buffer included 8 M urea and 1.0 mM β-mercaptoethanol.
(§1) In order to investigate the ligand-binding properties of PxutCSP19 to host odorants and insecticides, we first asked whether this fluorescent probe 1-NPN was available for the binding of PxutCSP19. To calculate the binding ability of PxutCSP19 to 1-NPN, we titrated different final concentrations of 1-NPN (2~20 μM) into Tris-HCl buffer (pH 7.4) containing 2 μM PxutCSP19. The binding constant (K1-NPN) of 1-NPN to this protein was determined with GraphPad Prism 7 (GraphPad Software Inc., San Diego, CA), as previously described. The solution was excited at 337 nm and the emission peak was monitored at 414 nm on an RF-5301PC spectrofluorometer (Shimadzu, Kyoto, Japan) using a quartz micro-cuvette filled with a 100 μL mixture, with 5 nm excitation and emission slit widths. If the host odorant molecules could displace more than 40% of the 1-NPN fluorescence from the binding cavity of PxutCSP19, the compounds would be continuously added up to 36 μM with triplicates. For the binding experiments, each compound would be added into the PxutCSP19/1-NPN (each 2 μM) complex with final concentrations of 2~20 μM. […] We used the Ki values to compare the binding affinities of various ligands with the equation: Ki = [IC50]/(1 + [1-NPN]/K1-NPN), where IC50 represents the ligand concentrations displacing one half of the initial protein/1-NPN fluorescence, and [1-NPN] is the free concentration of 1-NPN at 2 μM.

PxutCSP19-T2 = biological target: T1, PxutCSP19-T2 (Papilio xuthus, UniProt A0A194QJK0); assay: Fluorescence competitive binding assay (1-NPN displacement), truncated PxutCSP19-T2; details: for inhibition at 20 µM: T2 (35 N-terminal residues truncated), ligand at 20 μM, read-out: F.D. (fluorescent displacement rate of ligands); for Ki: Ki = [IC50]/(1 + [1-NPN]/K1-NPN)
T1 sequence (A0A194QJK0 53-142): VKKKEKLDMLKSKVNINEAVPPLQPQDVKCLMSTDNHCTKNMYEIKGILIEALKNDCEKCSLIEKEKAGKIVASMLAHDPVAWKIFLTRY
Protocol: as §1
(§2) To determine the effects of an extended N-terminal sequence (approximately 35 amino acids) on the binding specificity of PxutCSP19 to ligands, we next constructed two truncated PxutCSP19s. Firstly, the front 17 amino acids (i.e., EITIGGIERTMSPGVKS, defined as PxutCSP19-T1) and the front 35 amino acids (i.e., […], defined as PxutCSP19-T2) of the N-terminal region without the signal peptide were truncated, respectively. Secondly, the two truncated ORFs (PxutCSP19-T1: 360 bp and PxutCSP19-T2: 306 bp) of PxutCSP19s were separately amplified using RT–PCR with gene-specific primers (Table S2). After that, the amplified products were sub-cloned into pET-30a (+), i.e., pET-30a (+)/PxutCSP19-T1 and pET-30a (+)/PxutCSP19-T2. Using the above-described methods for the expression and purification of proteins, we obtained two truncated proteins. Furthermore, the binding characteristics of the truncated PxutCSP19s to ligands with high affinities were investigated, representing six host odorants and eight insecticides.

PxutCSP19-T1 = biological target: T2, PxutCSP19-T1 (Papilio xuthus, UniProt A0A194QJK0); assay: Fluorescence competitive binding assay (1-NPN displacement), truncated PxutCSP19-T1; details: for inhibition at 20 µM: T1 (17 N-terminal residues truncated), ligand at 20 μM, read-out: F.D. (fluorescent displacement rate of ligands); for Ki: Ki = [IC50]/(1 + [1-NPN]/K1-NPN)
T2 sequence (A0A194QJK0 35-142): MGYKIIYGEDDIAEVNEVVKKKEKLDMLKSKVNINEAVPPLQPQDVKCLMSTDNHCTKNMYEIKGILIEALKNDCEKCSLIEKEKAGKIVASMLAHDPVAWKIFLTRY
Protocol: as §1, §2

Row | SMILES | IC50 (PxutCSP19) [µM] | inhibition at 20 µM (PxutCSP19) [%] | inhibition at 20 µM (PxutCSP19-T2) [%] | Ki (PxutCSP19-T2; T2) [µM] | IC50 (PxutCSP19-T2; T2, read-out: IC50) [µM] | inhibition at 20 µM (PxutCSP19-T1) [%] | Ki (PxutCSP19-T1; T1) [µM] | IC50 (PxutCSP19-T1; T1, read-out: IC50) [µM] | IC50 (PxutCSP19-T2) [µM] | IC50 (PxutCSP19-T1) [µM] | Ki (PxutCSP19; Wildtype (WT), Ki = [IC50]/(1 + [1-NPN]/K1-NPN)) [µM] | IC50 (PxutCSP19; Wildtype (WT), ligand up to 20 μM or 36 μM, displacing half of protein/1-NPN fluorescence) [µM] | 1-NPN fluorescence displaced (PxutCSP19; wildtype, ligand at 36 μM)
1 | COc1cc(C=O)cc(OC)c1O [Syringaldehyde] | 31 ± 0.97 | > 40 | 42.2 | 18.8 ± 0.74 | 28.6 ± 1.12 | 42.7 | 17.7 ± 0.84 | 28.1 ± 1.33 |  |  |  |  | 
2 | CCOP(=S)(OCC)O/N=C(\C#N)c1ccccc1 [Phoxim] | 2.63 ± 0.12 | 87.3 | 84.8 |  |  | 83.1 |  |  | 3.16 ± 0.35 | 2.66 ± 0.2 |  |  | 
3 | COC(=O)N(C(=O)N1CO[C@@]2(C(=O)OC)Cc3cc(Cl)ccc3C2=N1)c1ccc(OC(F)(F)F)cc1 [Indoxacarb] | 10.8 ± 0.65 | 61.5 | 62.5 | 7.98 ± 0.37 | 12.1 ± 0.56 | 59.1 | 7.08 ± 0.26 | 11.3 ± 0.41 |  |  |  |  | 
4 | O=C(NC(=O)c1c(F)cccc1F)Nc1cc(Cl)c(OC(F)(F)C(F)F)c(Cl)c1 [Hexaflumuron] | 12.1 ± 2.36 | 59.5 | 59.6 | 8.02 ± 1.03 | 12.2 ± 1.56 | 56.5 | 7.78 ± 0.46 | 12.4 ± 0.73 |  |  |  |  | 
5 | CCOP(=S)(OCC)Oc1nc(Cl)c(Cl)cc1Cl [Chlorpyrifos] | 5.52 ± 0.16 | 75.1 | 73.2 |  |  | 70.3 |  |  | 5.32 ± 0.4 | 5.87 ± 0.47 |  |  | 
6 | CN(C)C(CSS(=O)(=O)O)CSS(=O)(=O)O [Monosultap] |  | 53.6 | 61 | 11.8 ± 0.67 | 17.9 ± 1.02 | 54.8 | 11.1 ± 0.46 | 17.6 ± 0.73 |  |  | 11.1 ± 0.66 | 16.8 ± 1.01 | 
7 | CC1=CCC(=C(C)C)CC1 [Terpinolene] | 34.1 ± 1.31 | > 40 | 38.5 | 20.8 ± 1.1 | 31.6 ± 1.67 | 40.1 | 21.14 ± 0.1 | 33.64 ± 0.16 |  |  |  |  | 
8 | C=CC(C)(O)CCC=C(C)C (centres unmarked) [Linalool] | 33.8 ± 0.84 | > 40 | 40.3 | 22.8 ± 0.59 | 34.6 ± 0.9 | 39.8 | 20.8 ± 0.85 | 33.1 ± 1.34 |  |  |  |  | 
9 | C=C(C)[C@H]1Cc2c(ccc3c2O[C@@H]2COc4cc(OC)c(OC)cc4[C@@H]2C3=O)O1 [Rotenone] | 9.15 ± 0.76 | 67.6 | 64.4 |  |  | 61.8 |  |  | 11.3 ± 0.58 | 11.12 ± 0.04 |  |  | 
10 | CCOCn1c(-c2ccc(Cl)cc2)c(C#N)c(Br)c1C(F)(F)F [Chlorfenapyr] | 10.71 ± 0.09 | 58.7 | 64.3 | 6.68 ± 0.45 | 10.1 ± 0.68 | 63.8 | 6.47 ± 0.27 | 10.3 ± 0.43 |  |  |  |  | 
11 | O=C(NC(=O)c1c(F)cccc1F)Nc1cc(Cl)c(Oc2ncc(C(F)(F)F)cc2Cl)c(Cl)c1 [Chlorfluazuron] | 11.9 ± 1.04 | 60.5 | 57 | 8.88 ± 0.4 | 13.5 ± 0.6 | 54.7 | 7.99 ± 0.94 | 12.7 ± 1.49 |  |  |  |  | 
12 | C=C/C(C)=C/CC=C(C)C [Ocimene] | 31.3 ± 1.73 | > 40 | 35.2 | 21.6 ± 0.72 | 32.8 ± 1.09 | 43.1 | 19.9 ± 1.17 | 31.7 ± 1.86 |  |  |  |  | 
13 | Cc1ccc(C(C)C)cc1O [Carvacrol] | > 20 | 37.4 |  |  |  |  |  |  |  |  |  |  | 
14 | C/C=C(\C)C(=O)O[C@H]1C[C@@H](OC(C)=O)[C@@]2(C(=O)OC)CO[C@H]3[C@@H](O)[C@@](C)([C@]45O[C@@]4(C)[C@H]4C[C@@H]5O[C@@H]5OC=C[C@@]54O)[C@H]4[C@]1(CO[C@]4(O)C(=O)OC)[C@@H]32 [Azadirachtin, reference compound] | > 20 | 34.5 |  |  |  |  |  |  |  |  |  |  | 
15 | CC1(C)[C@H](C(=O)O[C@H](C#N)c2cccc(Oc3ccccc3)c2)[C@@H]1C=C(Br)Br [Deltamethrin, reference compound] | > 20 | 39.3 |  |  |  |  |  |  |  |  |  |  | 
16 | CC1(C)C(C=C(Cl)Cl)C1C(=O)OC(C#N)c1cccc(Oc2ccccc2)c1 (stereo not drawn) [α-Cypermethrin, reference compound] | > 20 | 5.65 |  |  |  |  |  |  |  |  |  |  | 
17 | CCCCCCCCCCC=O [Undecanal] | > 20 | 27.7 |  |  |  |  |  |  |  |  |  |  | 
18 | CC1=CC[C@@H](C(C)(C)O)CC1 [α-Terpineol] | > 36 | > 40 |  |  |  |  |  |  |  |  |  |  | less than 50%
19 | C=C1C2CCC(C2)C1(C)C (centres unmarked) [Camphene] | > 20 | 34.5 |  |  |  |  |  |  |  |  |  |  | 
20 | CCc1ccc(C(=O)NN(C(=O)c2cc(C)cc(C)c2)C(C)(C)C)cc1 [Tebufenozide, reference compound] | > 20 | 48.5 |  |  |  |  |  |  |  |  |  |  | 
21 | CCCCCCCCO [1-Octanol] | 34.5 ± 1.11 | > 40 | 42.7 | 22.8 ± 0.42 | 34.6 ± 0.64 | 43.5 | 21.7 ± 0.44 | 34.5 ± 0.7 |  |  |  |  | 
